pKi: −log10 of the molar value.
Assays:
[1] = target: T1, Cathepsin K (Homo sapiens, UniProt P43235); assay: Cathepsin K inhibition assay (fluorogenic peptide substrate); selectivity ratio vs cathepsin S; assay type: biochemical; conditions: ratio of cathepsin K inhibition constant to cathepsin S inhibition constant; Table II
T1 sequence (P43235 115-329): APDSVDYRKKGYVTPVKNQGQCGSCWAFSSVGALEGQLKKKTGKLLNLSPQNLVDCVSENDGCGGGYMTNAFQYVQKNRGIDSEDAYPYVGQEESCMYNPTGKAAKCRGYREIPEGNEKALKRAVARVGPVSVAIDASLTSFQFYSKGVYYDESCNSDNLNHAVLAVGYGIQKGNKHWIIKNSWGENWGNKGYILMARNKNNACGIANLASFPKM
Summary of the method: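 Inhibition constants for competitive inhibitors come from apparent values fitted to enzyme progress curves. Substrate, acetyl-Lys-His-Pro-Lys-aminocarbamoylcoumarin (40 μM final), starts the reaction; fluorescence rise read at 380 nm excitation, 450 nm emission. Selectivity ratio: other cathepsin constant over cathepsin S constant.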

[2] = target: Cathepsin S (Homo sapiens, UniProt P25774); assay: Cathepsin S inhibition assay (fluorogenic peptide substrate); assay type: biochemical; conditions: Table II, compounds of Formula I; read-out: Ki Cat. S
Summary of the method: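 Ki values come from nonlinear fitting of inhibited hydrolysis rates, taking free and total inhibitor concentrations as equal. Rates measured as rising fluorescence at 380/450 nm after reaction start with 50 μM final acetyl-HPVK-aminocarbamoylcoumarin.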

Chain of Cathepsin S (P25774 115-331, species assumed): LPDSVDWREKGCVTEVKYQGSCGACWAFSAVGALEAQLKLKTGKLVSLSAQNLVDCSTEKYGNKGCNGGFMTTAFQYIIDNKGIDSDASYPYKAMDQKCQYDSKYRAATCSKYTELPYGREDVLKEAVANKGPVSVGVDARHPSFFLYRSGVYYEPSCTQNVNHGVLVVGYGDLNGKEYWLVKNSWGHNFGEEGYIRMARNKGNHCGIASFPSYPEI

| SMILES | Selectivity for Cat. S over Cat. K [1] | pKi [2] |
| --- | --- | --- |
| O=C(N[C@@H](CC1CCCCC1)C(=O)NCCNc1ccc(OC(F)(F)F)cc1)c1ccsc1 [Compound 37, Thiophene-3-carboxylic acid (S)-{2-cyclohexyl-1-[2-(4-trifluoromethoxy-phenylamino)-ethylcarbamoyl]-ethyl}-amide] | ++ (++, >100) | > 7.00 |
| COc1ccc(NCCNC(=O)[C@H](Cc2ccc(-c3ccc(N(C)C)cc3)cc2)NC(=O)c2cccc(C)c2)cc1 [Compound 287, (S)-N-{2-(4′-Dimethylamino-biphenyl-4-yl)-1-[2-(4-methoxy-phenylamino)-ethylcarbamoyl]-ethyl}-3-methyl-benzamide] | ++ (++, >100) | > 6.00 |
| COc1ccc(NCCNC(=O)[C@H](CC2CCCCC2)NC(=O)c2ccc(OCc3ccccc3)cc2)cc1 [Compound 109, (S)-4-Benzyloxy-N-{2-cyclohexyl-1-[2-(4-methoxy-phenylamino)-ethylcarbamoyl]-ethyl}-benzamide] | +++ (+++, >1000) | > 7.00 |
| Cc1cc(C)nc(N(C)c2cccc(C(=O)N[C@@H](CC3CCCCC3)C(=O)NCCNc3ccc(OC(F)(F)F)cc3)c2)n1 [Compound 71, N-(S)-{2-cyclohexyl-1-[2-(4-trifluoromethoxy-phenylamino)-ethylcarbamoyl]-ethyl}-3-[(4,6-dimethyl-pyrimidin-2-yl)-methyl-amino]-benzamide] | ++ (++, >100) | > 7.00 |
| COc1ccc(NCCNC(=O)[C@H](CC2CCCCC2)NC(=O)c2cccc(C(F)(F)F)c2)cc1 [Compound 106, (S)-N-{2-Cyclohexyl-1-[2-(4-methoxy-phenylamino)-ethylcarbamoyl]-ethyl}-3-trifluoromethyl-benzamide] | ++ (++, >100) | > 7.00 |
| COc1ccc(NCCNC(=O)[C@H](Cc2ccc(-c3ccc(OC)nc3)cc2)NC(=O)c2cccc(C)c2)cc1 [Compound 292, (S)-N-{1-[2-(4-Methoxy-phenylamino)-ethylcarbamoyl]-2-[4-(6-methoxy-pyridin-3-yl)-phenyl]-ethyl}-3-methyl-benzamide] | +++ (+++, >1000) | > 7.00 |
| O=C(N[C@@H](CC1CCCCC1)C(=O)NCCNc1ccc(OC(F)(F)F)cc1)c1ccc(-c2cccc(F)c2)s1 [Compound 36, 5-(3-Fluoro-phenyl)-thiophene-2-carboxylic acid (S)-{2-cyclohexyl-1-[2-(4-trifluoromethoxy-phenylamino)-ethylcarbamoyl]-ethyl}-amide] | ++ (++, >100) | > 7.00 |
| O=C(Cc1cccs1)N[C@@H](CC1CCCCC1)C(=O)NCCNc1ccc(F)cc1 [Compound 76, 3-Cyclohexyl-N-[2-(4-fluoro-phenylamino)-ethyl]-2-(S)-(2-thiophen-2-yl-acetylamino)-propionamide] | +++ (+++, >1000) | > 7.00 |
| O=C(Cc1ccc(F)cc1Cl)N[C@@H](CC1CCCCC1)C(=O)NCCNc1ccc(F)cc1 [Compound 107, 2-(S)-[2-(2-Chloro-4-fluoro-phenyl)-acetylamino]-3-cyclohexyl-N-[2-(4-fluoro-phenylamino)-ethyl]-propionamide] | +++ (+++, >1000) | > 7.00 |
| COc1ccc(NCCNC(=O)[C@H](Cc2ccccc2)NC(=O)c2cccc3c2OCC3)cc1 [Compound 52, (S)-2,3-Dihydro-benzofuran-7-carboxylic acid {1-[2-(4-methoxy-phenylamino)-ethylcarbamoyl]-2-phenyl-ethyl}-amide] | + (+, >10) | > 5.00 |
| COc1ccc(NCCNC(=O)[C@H](Cc2ccc(Oc3ccc(OC)cc3)cc2)NC(=O)c2cccc(C)c2)cc1 [Compound 328, (S)-N-{2-[4-(4-Methoxy-phenoxy)-phenyl]-1-[2-(4-methoxy-phenylamino)-ethylcarbamoyl]-ethyl}-3-methyl-benzamide] | ++ (++, >100) | > 6.00 |
| O=C(N[C@@H](CC1CCCCC1)C(=O)NCCNc1ccc(OC(F)(F)F)cc1)c1ccc(-c2cccc(OC(F)(F)F)c2)s1 [Compound 209, (S)-5-(3-Trifluoromethoxy-phenyl)-thiophene-2-carboxylic acid {2-cyclohexyl-1-[2-(4-trifluoromethoxy-phenylamino)-ethylcarbamoyl]-ethyl}-amide] | +++ (+++, >1000) | > 7.00 |
| COc1ccc(NCCNC(=O)[C@H](Cc2ccc(C(C)(C)C)cc2)NC(=O)c2cccc(C)c2)cc1 [Compound 255, (S)-N-{2-(4-tert-Butyl-phenyl)-1-[2-(4-methoxy-phenylamino)-ethylcarbamoyl]-ethyl}-3-methyl-benzamide] | ++ (++, >100) | > 6.00 |
| CC(C(=O)NC(CC1CCCCC1)C(=O)NCCNc1ccc(F)cc1)c1ccc(-c2ccccc2)c(F)c1 [Compound 308, N-(S)-{2-cyclohexyl-1-[2-(4-fluoro-phenylamino)-ethylcarbamoyl]-ethyl}-2-(2-fluoro-biphenyl-4-yl)-propionamide] | ++ (++, >100) | > 7.00 |
| COc1ccc(NCCNC(=O)C(NC(=O)c2cccc(C)c2)c2ccc(F)cc2)cc1 (stereo not shown) [Compound 227, N-{(4-Fluoro-phenyl)-[2-(4-methoxy-phenylamino)-ethylcarbamoyl]-methyl}-3-methyl-benzamide] | ++ (++, >100) | > 6.00 |
| COc1ccc(CC(=O)NC(CC2CCCCC2)C(=O)NCCNc2ccc(OC(F)(F)F)cc2)cc1 (stereo not shown) [Compound 17, 3-Cyclohexyl-2-[2-(4-methoxy-phenyl)-acetylamino]-N-[2-(4-trifluoromethoxy-phenylamino)-ethyl]-propionamide] | ++ (++, >100) | > 7.00 |
| O=C(N[C@@H](CC1CCCCC1)C(=O)NCCNc1ccc(OC(F)(F)F)cc1)c1ccc(-c2ccccc2C(F)(F)F)o1 [Compound 219, (S)-5-(2-Trifluoromethyl-phenyl)-furan-2-carboxylic acid {2-cyclohexyl-1-[2-(4-trifluoromethoxy-phenylamino)-ethylcarbamoyl]-ethyl}-amide] | ++ (++, >100) | > 7.00 |
| COc1ccc(NCCNC(=O)[C@H](CC2CCCCC2)NC(=O)c2ccc(Br)o2)cc1 [Compound 177, (S)-5-Bromo-furan-2-carboxylic acid {2-cyclohexyl-1-[2-(4-methoxy-phenylamino)-ethylcarbamoyl]-ethyl}-amide] | ++ (++, >100) | > 7.00 |
| O=C(N[C@@H](CC1CCCCC1)C(=O)NCCNc1ccc(OC(F)(F)F)cc1)C1CCN(c2ncc(Br)cn2)CC1 [Compound 81, 1-(5-Bromo-pyrimidin-2-yl)-piperidine-4-carboxylic acid (S)-{2-cyclohexyl-1-[2-(4-trifluoromethoxy-phenylamino)-ethylcarbamoyl]-ethyl}-amide] | ++ (++, >100) | > 6.00 |
| CS(=O)(=O)c1ccc(CC(=O)N[C@@H](CC2CCCCC2)C(=O)NCCNc2ccc(F)cc2)cc1 [Compound 326, 3-Cyclohexyl-N-[2-(4-fluoro-phenylamino)-ethyl]-2-(S)-[2-(4-methanesulfonyl-phenyl)-acetylamino]-propionamide] | ++ (++, >100) | > 6.00 |
| COc1ccc(NCCNC(=O)[C@H](CC2CCCC2)NC(=O)c2ccc(-c3cccc(C(F)(F)F)c3)o2)cc1 [Compound 6, N-((S)-1-(2-(4-methoxyphenylamino)ethylcarbamoyl)-2-cyclopentylethyl)-5-(3-(trifluoromethyl)phenyl)furan-2-carboxamide] | ++ (++, >100) | > 7.00 |
| CS(=O)(=O)c1ccc(C(=O)N[C@@H](CC2CCCCC2)C(=O)NCCNc2ccc(OC(F)(F)F)cc2)cc1 [Compound 19, N-(S)-{2-cyclohexyl-1-[2-(4-trifluoromethoxy-phenylamino)-ethylcarbamoyl]-ethyl}-4-methanesulfonyl-benzamide] | + (+, >10) | > 6.00 |
| CS(=O)(=O)c1ccc(C(=O)N[C@@H](CC2CCCCC2)C(=O)NCCNc2ccc(F)cc2)cc1 [Compound 313, N-(S)-{2-cyclohexyl-1-[2-(4-fluoro-phenylamino)-ethylcarbamoyl]-ethyl}-4-methanesulfonyl-benzamide] | + (+, >10) | > 6.00 |
| O=C(N[C@@H](CC1CCCCC1)C(=O)NCCNc1ccc(OC(F)(F)F)cc1)c1ccc(-c2ccccc2C(F)(F)F)s1 [Compound 35, 5-(2-Trifluoromethyl-phenyl)-thiophene-2-carboxylic acid (S)-{2-cyclohexyl-1-[2-(4-trifluoromethoxy-phenylamino)-ethylcarbamoyl]-ethyl}-amide] | + (+, >10) | > 7.00 |
| COc1ccc(NCCNC(=O)C(NC(=O)c2cccc(C)c2)c2cccc3ccccc23)cc1 (stereo not shown) [Compound 218, N-{[2-(4-Methoxy-phenylamino)-ethylcarbamoyl]-naphthalen-1-yl-methyl}-3-methyl-benzamide] | +++ (+++, >1000) | > 6.00 |
| O=C(Cc1cc(F)ccc1F)N[C@@H](CC1CCCCC1)C(=O)NCCNc1ccc(F)cc1 [Compound 95, 3-Cyclohexyl-2-(S)-[2-(2,5-difluorophenyl)-acetylamino]-N-[2-(4-fluoro-phenylamino)-ethyl]-propionamide] | ++ (++, >100) | > 7.00 |

From patent publication US7109243B2 (IRM LLC, priority 2003, dated 2006)
